Measured values taken from patent US8129532B2, “Amino(oligo)thiophene dyes, preparation thereof, and optical methods of use” (The University of Connecticut, priority 2007, dated 2012).

Tested on: NIE-115 mouse neuroblastoma
Experiment: SHG and 2PF voltage sensitivity, 50 mV step, slow switching protocol on patch-clamped neuroblastoma cell
Format: cell-based
Conditions: comparator named in the sentence (PY-1266; PY-1268)
From the text: For full details of our non-linear imaging microscope, we refer the reader to previously published descriptions. A. C. Millard, P. J. Campagnola, W. Mohler, A. Lewis, and L. M. Loew, “Second Harmonic Imaging Microscopy,” Meth. Enzymol. 361, 47-69 (2003); Millard, A. C., L. Jin, and L. M. Loew, “Second Harmonic Generation Imaging Microscopy with a High Power Ultrafast Fiber Laser,”Commercial and Biomedical Applications of Ultrafast Lasers. 5714-5716, 92-98 (2005); A. C. Millard, L. Jin, M.-D. Wei, J. P. Wuskell, A. Lewis, and L. M. Loew, “Sensitivity of Second Harmonic Generation from Styryl Dyes to Transmembrane Potential,” Biophys. J. 86, 1169-1176 (2004). Our current microscope combines a Fluoview (Olympus) scan-head and an Axiovert (Zeiss) inverted microscope constructed for multiple imaging methodologies including wide-field, one-photon excitation fluorescence imaging, as well as SHG and 2PF imaging. Our laser sources include a Mira (Coherent) Ti:sapphire laser and a Femtopower (Fianium) fiber laser operating at 1064 nm. […] Fluorescence is imaged (for linear imaging) or collected (for non-linear imaging) back through the excitation objective, while SHG is collected in the forward, transmitted light direction by a condenser, either 0.8 NA or 0.55 NA (Zeiss). […]

CCN(CC)c1ccc(-c2ccc(/C=C/c3cc[n+](CCC[N+](CC)(CC)CC)cc3)s2)s1 [PY-1261, Di-2-BTEPPTEA]
SHG signal sensitivity relative to another dye: more than five times larger
